# Data: article PMC7961786, “Magic Peptide: Unique Properties of the LRR11 Peptide in the Activation of Leukotriene Synthesis in Human Neutrophils” (International Journal of Molecular Sciences, 2021)
# Test system: 5′-biotinylated C-CpG
# Assay: TSM acoustic biosensor, peptide binding to immobilized C-CpG
# Text: To characterize the interaction of the studied synthetic ODNs with the LRR11 peptide, we applied the thickness shear mode (TSM) acoustic biosensor method, which is based on the investigation of ultrasonic waves in piezoelectric materials such as AT-cut quartz. This approach involved immobilizing a 5′-biotinylated ODN on the surface of TSM transducer covered by NeutrAvidin and then adding the LRR11 peptide. An unrelated peptide (URP) with a random primary structure ([…]) was used as a negative control. The measurement procedure was divided into several steps, in which each immobilization stage was followed by washing with an appropriate buffer solution; when peptide solutions at different concentrations (from 1 to 100 nM) were added to the surface-modified TSM transducer, a wash with Hanks buffer was used before increasing the peptide concentration.
# Based on Langmuir isotherm Equation (1), (1) Δfcc=Δfsmaxc/KD+c where Δfs(c) is the frequency change at a certain peptide concentration under equilibrium conditions, (Δfs)max is the maximum frequency change, c is the peptide concentration, and KD is the equilibrium constant of dissociation, we estimated the (Δfs)max and KD values for binding of the LRR11 peptide to C-CpG and B-CpG (Table 3).
# Using Sauerbrey’s Equation (2), (2) Δf=−2f02Δm/Aμqρq where f0 is the fundamental resonance frequency (in our case 8 MHz), Δm is the change in mass (in grams) of the adsorbed layer on the crystal surface, A is the effective crystal area (in our case 0.2 cm^2), μq = 2.947 × 10^11 g × cm^−1s^−2 is the shear modulus of elasticity, and ρq = 2.648 g × cm^−3 is the crystal density, surface concentrations of NeutrAvidin, ODN and LRR11 peptide were estimated based on changes of resonance frequency (Figure 4). According to Equation (2), the surface density of molecules, σ (in molecules/cm^2), can be calculated as σ = ΔmNA/(A × Mw), where NA is Avogadro’s number (=6.023 × 10^23 mol^−1), and Mw represents the molecular weight of the corresponding compound (NeutrAvidin: 65 kDa, 5′-biotinylated C-CpG: 7115.4 Da, and LRR11: 3421 Da). Based on this approach, we obtained the following surface concentration values: 1.94 × 10^13 cm^−2 for NeutrAvidin, 3.37 × 10^13 cm^−2 for C-CpG and 2.4 × 10^13 cm^−2 for LRR11. The NeutrAvidin has four binding sites, two of which are available for biotinylated ODN binding. This is due to the fact that the other two sites are inaccessible due to NeutrAvidin chemisorption on the TSM surface. Thus, the number of available binding sites for the ODN is 3.88 × 10^13 cm^−2. […] Therefore, the surface of the TSM transducer is practically completely saturated by C-CpG. Estimation of the surface concentration of LRR11 evidences that at 50 nM concentration of this peptide, it occupies almost 70.6% of the ODN molecules. […]
Substance,"KA (LRR11-C-CpG complex, KA = 1/KD) [nM⁻¹]","−(Δfs)max (LRR11 to immobilized C-CpG, Langmuir fit, Hanks buffer, room temperature, LRR11 1-100 nM, three independent experiments) [Hz]","change of ∆fs at low LRR11 concentrations (1, 5, 10 nM LRR11, C-CpG)"
5′-tcgtcgttttcggcgcgcgccg-3′ (DNA TCGTCGTTTTCGGCGCGCGCCG; chemistry not fully specified) [C-CpG],0.017 ± 0.007,33.9 ± 6.4,
"QLRKLNLSFNYQKRVSFAHLSLAPSFGSLV [LRR11, 30 amino acid peptide from leucine-rich repeat of TLR9]",,,not significant or small changes of ∆fs
